The values that follow come from patent US11180504B2 (ORCHID PHARMA LTD., priority 2016, dated 2021).

Converted amounts (≈) assume the structure as drawn. Like-named read-outs stand apart in the source and are kept apart here.

The subject of assay [1] is methicillin-sensitive Staphylococcus aureus. The assay can be described thus: MIC by broth micro-dilution (CLSI), methicillin-sensitive S. aureus. The format is cell-based. The following applies: MSSA S. aureus ATCC29213.
The subject of assay [2] is carbapenem sensitive Pseudomonas aeruginosa. Kind of assay: MIC by broth micro-dilution (CLSI), carbapenem sensitive P. aeruginosa. Type of assay: cell-based.
In assay [3] the test system is carbapenemase producing K. pneumoniae. Kind of assay: MIC by broth micro-dilution (CLSI), carbapenemase producing K. pneumoniae. Type of assay: cell-based, Klebsiella pneumoniae.
Assay [4] concerns carbapenem sensitive Escherichia coli. The assay can be described thus: MIC by broth micro-dilution (CLSI), carbapenem sensitive E. coli. The format is cell-based.
Setting [5] is: Staphylococcus aureus, ATCC 29213 / MSSA, read-out: MIC.
Setting [6] is: Pseudomonas aeruginosa, ATCC27853, Meropenem susceptible P. aeruginosa ATCC27853, read-out: MIC.
[7] abbreviates: Klebsiella pneumoniae, ATCCBAA1705, KPC-2 K. pneumoniae ATCC BAA-1705, read-out: MIC.
[8] abbreviates: Escherichia coli, ATCC25922, ESBL −ve E. coli ATCC25922, read-out: MIC.
The mark [9] stands for this setting: KPC-2 K. pneumoniae ATCC BAA-1705.

For the compound `C[C@@H](NC(=O)Cn1cnnn1)[C@H]1C(=O)N2C(C(=O)O)=C(S[C@@H]3CN[C@H](C(=O)N4CCC5(CNC5)C4)C3)[C@H](C)[C@H]12` [Example 502, (4R,5S,6R)-6-((R)-1-(2-(1H-tetrazol-1-yl)acetamido)ethyl)-3-((3S,5S)-5-(2,6-diazaspiro[3.4]octane-6-carbonyl)pyrrolidin-3-ylthio)-4-methyl-7-oxo-1-azabicyclo[3.2.0]hept-2-ene-2-carboxylic acid], the MIC in assay [1] (setting [5]) was determined as 4 µg/mL (≈ 7.15 µM); in assay [2] (setting [6]), 2 µg/mL (≈ 3.57 µM); in assay [3] (setting [7]), 1 µg/mL (≈ 1.79 µM); in assay [4] (setting [8]) it was 0.25 µg/mL (≈ 0.447 µM).

In the case of `C[C@@H](NC(=O)Cn1cnnn1)[C@H]1C(=O)N2C(C(=O)O)=C(S[C@@H]3CN[C@H](C(=O)N4CCCC45CCCNC5)C3)[C@H](C)[C@H]12` (stereo partly drawn) [Example 503, (4R,5S,6R)-3-((3S,5S)-5-(1,7-diazaspiro[4.5]decane-1-carbonyl)pyrrolidin-3-ylthio)-6-((R)-1-(2-(1H-tetrazol-1-yl)acetamido)ethyl)-4-methyl-7-oxo-1-azabicyclo[3.2.0]hept-2-ene-2-carboxylic acid], the MIC in assay [1] (setting [5]) turned out to be 2 µg/mL (≈ 3.4 µM); in assay [2] (setting [6]) it was 16 µg/mL (≈ 27.2 µM); in assay [3] (setting [9]) it was 1 µg/mL (≈ 1.7 µM); in assay [4] (setting [8]) it was 0.5 µg/mL (≈ 0.851 µM).

`C[C@@H](NC(=O)Cn1cnnn1)[C@H]1C(=O)N2C(C(=O)O)=C(S[C@@H]3CN[C@H](C(=O)N4CC5CCNC5C4)C3)[C@H](C)[C@H]12` (stereo partly drawn) [Example 505, (4R,5S,6R)-6-((R)-1-(2-(1H-tetrazol-1-yl)acetamido)ethyl)-4-methyl-3-((3S,5S)-5-(octahydropyrrolo[3,4-b]pyrrole-5-carbonyl)pyrrolidin-3-ylthio)-7-oxo-1-azabicyclo[3.2.0]hept-2-ene-2-carboxylic acid]: the MIC in assay [1] (setting [5]) is 2 µg/mL (≈ 3.57 µM); in assay [2] (setting [6]), 1 µg/mL (≈ 1.79 µM); in assay [3] (setting [7]), 1 µg/mL (≈ 1.79 µM); in assay [4] (setting [8]) it was 0.25 µg/mL (≈ 0.447 µM).

On to `C[C@@H](NC(=O)Cn1cnnn1)[C@H]1C(=O)N2C(C(=O)O)=C(S[C@@H]3CN[C@H](C(=O)N4CC5CCNC5C4)C3)[C@H](C)[C@H]12` (stereo partly drawn) [Example 506, (4R,5S,6R)-6-((R)-1-(2-(1H-tetrazol-1-yl)acetamido)ethyl)-4-methyl-3-((3S,5S)-5-(octahydropyrrolo[3,4-b]pyrrole-5-carbonyl)pyrrolidin-3-ylthio)-7-oxo-1-azabicyclo[3.2.0]hept-2-ene-2-carboxylic acid], for which the MIC was 4 µg/mL (≈ 7.15 µM) in assay [1], 1 µg/mL (≈ 1.79 µM) in assay [2] (Meropenem susceptible P. aeruginosa ATCC27853), 1 µg/mL (≈ 1.79 µM) in assay [3] (setting [9]) and 0.25 µg/mL (≈ 0.447 µM) in assay [4] (ESBL −ve E. coli ATCC25922).

With `C[C@@H](NC(=O)CSC(F)F)[C@H]1C(=O)N2C(C(=O)O)=C(S[C@@H]3CN[C@H](C(=O)N4CC[C@@H](N)C4)C3)[C@H](C)[C@H]12` [Example 507, (4R,5S,6R)-3-((3S,5S)-5-((R)-3-aminopyrrolidine-1-carbonyl)pyrrolidin-3-ylthio)-6-((R)-1-(2-(difluoromethylthio)acetamido)ethyl)-4-methyl-7-oxo-1-azabicyclo[3.2.0]hept-2-ene-2-carboxylic acid], the MIC in assay [1] (setting [5]) was determined as 2 µg/mL (≈ 3.65 µM); in assay [2] (setting [6]), 64 µg/mL (≈ 117 µM); in assay [3] (setting [7]), 8 µg/mL (≈ 14.6 µM); in assay [4] (setting [8]), 1 µg/mL (≈ 1.83 µM).

For the compound `C[C@@H](NC(=O)CN1CCNCC1)[C@H]1C(=O)N2C(C(=O)O)=C(S[C@@H]3CN[C@H](C(=O)N(C)C)C3)[C@H](C)[C@H]12` [Example 508, (4R,5S,6R)-3-((3S,5S)-5-(dimethylcarbamoyl)pyrrolidin-3-ylthio)-4-methyl-7-oxo-6-((R)-1-(2-(piperazin-1-yl)acetamido)ethyl)-1-azabicyclo[3.2.0]hept-2-ene-2-carboxylic acid], the MIC in assay [1] (setting [5]) was determined as 16 µg/mL (≈ 31.5 µM); in assay [2] (setting [6]) it was 128 µg/mL (≈ 252 µM); in assay [3] (setting [7]), 8 µg/mL (≈ 15.7 µM); in assay [4] (setting [8]), 2 µg/mL (≈ 3.93 µM).

For `C[C@@H](NC(=O)CN1CCC(F)(F)C1)[C@H]1C(=O)N2C(C(=O)O)=C(S[C@@H]3CN[C@H](C(=O)N(C)C)C3)[C@H](C)[C@H]12` [Example 512, (4R,5S,6R)-6-((R)-1-(2-(3,3-difluoropyrrolidin-1-yl)acetamido)ethyl)-3-((3S,5S)-5-(dimethylcarbamoyl)pyrrolidin-3-ylthio)-4-methyl-7-oxo-1-azabicyclo[3.2.0]hept-2-ene-2-carboxylic acid], the MIC in assay [1] (setting [5]) was 8 µg/mL (≈ 15.1 µM); in assay [2] (setting [6]), greater than 128 µg/mL; in assay [3] (setting [7]), 64 µg/mL (≈ 121 µM); in assay [4] (setting [8]) it was 2 µg/mL (≈ 3.78 µM).

Turning to `C[C@@H](NC(=O)Cn1cnnn1)[C@H]1C(=O)N2C(C(=O)O)=C(S[C@@H]3CN[C@H](C(=O)NC[C@@H]4CCNC4)C3)[C@H](C)[C@H]12` [Example 513, (4R,5S,6R)-6-((R)-1-(2-(1H-tetrazol-1-yl)acetamido)ethyl)-4-methyl-7-oxo-3-((3S,5S)-5-((R)-pyrrolidin-3-ylmethylcarbamoyl)pyrrolidin-3-ylthio)-1-azabicyclo[3.2.0]hept-2-ene-2-carboxylic acid], the MIC in assay [1] (setting [5]) was 4 µg/mL (≈ 7.3 µM); in assay [2] (setting [6]) it was 16 µg/mL (≈ 29.2 µM); in assay [3] (setting [7]), 1 µg/mL (≈ 1.83 µM); in assay [4] (setting [8]) it was 0.25 µg/mL (≈ 0.457 µM).

As to `C[C@@H](NC(=O)/C(=N\OC(C)(C)C(=O)O)c1csc(N)n1)[C@H]1C(=O)N2C(C(=O)O)=C(S[C@@H]3CN[C@H](C(=O)N4CC[C@@H](N)C4)C3)[C@H](C)[C@H]12` [Example 514, (4R,5S,6R)-3-((3S,5S)-5-((R)-3-aminopyrrolidine-1-carbonyl)pyrrolidin-3-ylthio)-6-((R)-1-((Z)-2-(2-aminothiazol-4-yl)-2-(2-carboxypropan-2-yloxyimino)acetamido)ethyl)-4-methyl-7-oxo-1-azabicyclo[3.2.0]hept-2-ene-2-carboxylic acid], the MIC in assay [1] (setting [5]) was found to be 16 µg/mL (≈ 23.6 µM); in assay [2] (setting [6]) it was 32 µg/mL (≈ 47.1 µM); in assay [3] (setting [7]), 16 µg/mL (≈ 23.6 µM); in assay [4] (setting [8]), 0.5 µg/mL (≈ 0.737 µM).

On to `C[C@@H](NC(=O)Cn1cnnn1)[C@H]1C(=O)N2C(C(=O)O)=C(SC3CN(C(=N)N)C3)[C@H](C)[C@H]12` [Example 515, (4R,5S,6R)-6-((R)-1-(2-(1H-tetrazol-1-yl)acetamido)ethyl)-3-(1-carbamimidoylazetidin-3-ylthio)-4-methyl-7-oxo-1-azabicyclo[3.2.0]hept-2-ene-2-carboxylic acid], for which the minimal inhibitory concentration (MIC) worked out at 2 µg/mL (≈ 4.45 µM) in assay [1] (setting [5]), 16 µg/mL (≈ 35.6 µM) in assay [2] (setting [6]), 1 µg/mL (≈ 2.22 µM) in assay [3] (setting [7]) and 0.25 µg/mL (≈ 0.556 µM) in assay [4] (setting [8]).

Take `C[C@@H](NC(=O)Cn1cnnn1)[C@H]1C(=O)N2C(C(=O)O)=C(S[C@@H]3CN[C@H](C(=O)N4CCCNCC4)C3)[C@H](C)[C@H]12` [Example 516, (4R,5S,6R)-3-((3S,5S)-5-(1,4-diazepane-1-carbonyl)pyrrolidin-3-ylthio)-6-((R)-1-(2-(1H-tetrazol-1-yl)acetamido)ethyl)-4-methyl-7-oxo-1-azabicyclo[3.2.0]hept-2-ene-2-carboxylic acid]: the MIC in assay [1] (setting [5]) worked out at 2 µg/mL (≈ 3.65 µM); in assay [2] (setting [6]), 2 µg/mL (≈ 3.65 µM); in assay [3] (setting [7]) it was 2 µg/mL (≈ 3.65 µM); in assay [4] (setting [8]), 0.25 µg/mL (≈ 0.457 µM).

In the case of `C[C@@H](NC(=O)Cn1cnnn1)[C@H]1C(=O)N2C(C(=O)O)=C(S[C@@H]3CN[C@H](C(=O)N4CCCN(C(=N)N)CC4)C3)[C@H](C)[C@H]12` [Example 517, (4R,5S,6R)-6-((R)-1-(2-(1H-tetrazol-1-yl)acetamido)ethyl)-3-((3S,5S)-5-(4-carbamimidoyl-1,4-diazepane-1-carbonyl)pyrrolidin-3-ylthio)-4-methyl-7-oxo-1-azabocyclo[3.2.0]hept-2-ene-2-carboxylic acid], the MIC in assay [1] (setting [5]) stood at 4 µg/mL (≈ 6.78 µM); in assay [2] (setting [6]), 4 µg/mL (≈ 6.78 µM); in assay [3] (setting [7]) it was 2 µg/mL (≈ 3.39 µM); in assay [4] (setting [8]), 0.5 µg/mL (≈ 0.848 µM).

For the compound `COCCNCC(=O)N[C@H](C)[C@H]1C(=O)N2C(C(=O)O)=C(S[C@@H]3CN[C@H](C(=O)N(C)C)C3)[C@H](C)[C@H]12` [Example 518, (4R,5S,6R)-3-((3S,5S)-5-(dimethylcarbamoyl)pyrrolidin-3-ylthio)-6-((R)-1-(2-(2-methoxyethylamino)acetamido)ethyl)-4-methyl-7-oxo-1-azabicyclo[3.2.0]hept-2-ene-2-carboxylic acid], the MIC is 8 µg/mL (≈ 16.1 µM) in assay [1] (setting [5]), 128 µg/mL (≈ 257 µM) in assay [2] (setting [6]), 4 µg/mL (≈ 8.04 µM) in assay [3] (setting [7]) and 1 µg/mL (≈ 2.01 µM) in assay [4] (setting [8]).

As for `CNC[C@@H]1CCCN1CC(=O)N[C@H](C)[C@H]1C(=O)N2C(C(=O)O)=C(S[C@@H]3CN[C@H](C(=O)N(C)C)C3)[C@H](C)[C@H]12` [Example 520, (4R,5S,6R)-3-((3S,5S)-5-(dimethylcarbamoyl)pyrrolidin-3-ylthio)-4-methyl-6-((R)-1-(2-((S)-2-((methylamino)methyl)pyrrolidin-1-yl)acetamido)ethyl)-7-oxo-1-azabicyclo[3.2.0]hept-2-ene-2-carboxylic acid], the MIC in assay [1] (setting [5]) is 16 µg/mL (≈ 29.8 µM); in assay [2] (setting [6]), greater than 128 µg/mL; in assay [3] (setting [7]) it was 16 µg/mL (≈ 29.8 µM); in assay [4] (setting [8]), 2 µg/mL (≈ 3.73 µM).

As to `C[C@@H](NC(=O)Cn1cnnn1)[C@H]1C(=O)N2C(C(=O)O)=C(S[C@@H]3CN[C@H](C(=O)N4CC[C@@H](N)[C@H]4CO)C3)[C@H](C)[C@H]12` [Example 522, (4R,5S,6R)-6-((R)-1-(2-(1H-tetrazol-1-yl)acetamido)ethyl)-3-((3S,5S)-5-((2S,3R)-3-amino-2-(hydroxymethyl)pyrrolidine-1-carbonyl)pyrrolidin-3-ylthio)-4-methyl-7-oxo-1-azabicyclo[3.2.0]hept-2-ene-2-carboxylic acid], the MIC in assay [1] (setting [5]) stood at 4 µg/mL (≈ 7.1 µM); in assay [2] (setting [6]), 1 µg/mL (≈ 1.77 µM); in assay [3] (setting [7]), 2 µg/mL (≈ 3.55 µM); in assay [4] (setting [8]) it was 0.25 µg/mL (≈ 0.444 µM).
